Columns and labels:
Type in all cases: in vivo
[1] = tested on: Italian ryegrass (Lolium multiflorum); test: Test A preemergence, visual plant response rating; conditions: for Ryegrass, Italian plant response rating: 125 g ai/ha, preemergence, 0 to 100 scale, 0 no effect, 100 complete control; for Ryegrass, Italian plant response rating (0 to 100 scale): 500 g ai/ha Preemergence, approx. 10 days
How it was run: (§1)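 Ratings use a 0–100 visual scale (100 = complete control) against untreated controls, scored about 10 days after greenhouse treatment. Test chemicals were formulated in surfactant-containing non-phytotoxic solvent and applied either as soil spray after planting (preemergence) or onto one- to two-leaf, 2–10 cm plants (postemergence).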

[2] = tested on: barnyardgrass (Echinochloa crus-galli); test: Test A preemergence, visual plant response rating; conditions: for Barnyardgrass plant response rating: 125 g ai/ha, preemergence, 0 to 100 scale, 0 no effect, 100 complete control; for Barnyardgrass plant response rating (0 to 100 scale): 500 g ai/ha Preemergence, approx. 10 days
How it was run: as §1

[3] = tested on: foxtail, giant (giant foxtail, Setaria faberii); test: Test A preemergence, visual plant response rating; conditions: for Foxtail, Giant plant response rating: 125 g ai/ha, preemergence, 0 to 100 scale, 0 no effect, 100 complete control; for Foxtail, Giant plant response rating (0 to 100 scale): 500 g ai/ha Preemergence, approx. 10 days
How it was run: as §1

[4] = tested on: kochia (Kochia scoparia); test: Test A preemergence, visual plant response rating; conditions: for Kochia plant response rating: 125 g ai/ha, preemergence, 0 to 100 scale, 0 no effect, 100 complete control; for Kochia plant response rating (0 to 100 scale): 500 g ai/ha Preemergence, approx. 10 days
How it was run: as §1

[5] = tested on: pigweed (Amaranthus retroflexus); test: Test A preemergence, visual plant response rating; conditions: for Pigweed plant response rating: 125 g ai/ha, preemergence, 0 to 100 scale, 0 no effect, 100 complete control; for Pigweed plant response rating (0 to 100 scale): 500 g ai/ha Preemergence, approx. 10 days
How it was run: as §1

[6] = tested on: ragweed (common ragweed, Ambrosia elatior); test: Test A preemergence, visual plant response rating; conditions: for Ragweed plant response rating: 125 g ai/ha, preemergence, 0 to 100 scale, 0 no effect, 100 complete control; for Ragweed plant response rating (0 to 100 scale): 500 g ai/ha Preemergence, approx. 10 days
How it was run: as §1

[7] = tested on: Italian ryegrass (Lolium multiflorum); test: Test A postemergence, visual plant response rating; conditions: for Ryegrass, Italian plant response rating (0 to 100 scale): 500 g ai/ha, postemergence, 0 is no effect, 100 is complete control; for Ryegrass, Italian plant response rating: Postemergence, 125 g ai/ha, 0 to 100 scale (0 no effect, 100 complete control)
How it was run: as §1

[8] = tested on: barnyardgrass (Echinochloa crus-galli); test: Test A postemergence, visual plant response rating; conditions: for Barnyardgrass plant response rating (0 to 100 scale): 500 g ai/ha, postemergence, 0 is no effect, 100 is complete control; for Barnyardgrass plant response rating: Postemergence, 125 g ai/ha, 0 to 100 scale (0 no effect, 100 complete control)
How it was run: as §1

[9] = tested on: blackgrass (Alopecurus myosuroides); test: Test A postemergence, visual plant response rating; conditions: for Blackgrass plant response rating (0 to 100 scale): 500 g ai/ha, postemergence, 0 is no effect, 100 is complete control; for Blackgrass plant response rating: Postemergence, 125 g ai/ha, 0 to 100 scale (0 no effect, 100 complete control)
How it was run: as §1

[10] = tested on: corn (Zea mays); test: Test A postemergence, visual plant response rating; conditions: for Corn plant response rating (0 to 100 scale): 500 g ai/ha, postemergence, 0 is no effect, 100 is complete control; for Corn plant response rating: Postemergence, 125 g ai/ha, 0 to 100 scale (0 no effect, 100 complete control)
How it was run: as §1

[11] = tested on: foxtail, giant (giant foxtail, Setaria faberii); test: Test A postemergence, visual plant response rating; conditions: for Foxtail, Giant plant response rating (0 to 100 scale): 500 g ai/ha, postemergence, 0 is no effect, 100 is complete control; for Foxtail, Giant plant response rating: Postemergence, 125 g ai/ha, 0 to 100 scale (0 no effect, 100 complete control)
How it was run: as §1

[12] = tested on: galium (catchweed bedstraw, Galium aparine); test: Test A postemergence, visual plant response rating; conditions: for Galium plant response rating (0 to 100 scale): 500 g ai/ha, postemergence, 0 is no effect, 100 is complete control; for Galium plant response rating: Postemergence, 125 g ai/ha, 0 to 100 scale (0 no effect, 100 complete control)
How it was run: as §1

[13] = tested on: kochia (Kochia scoparia); test: Test A postemergence, visual plant response rating; conditions: for Kochia plant response rating (0 to 100 scale): 500 g ai/ha, postemergence, 0 is no effect, 100 is complete control; for Kochia plant response rating: Postemergence, 125 g ai/ha, 0 to 100 scale (0 no effect, 100 complete control)
How it was run: as §1

[14] = tested on: pigweed (Amaranthus retroflexus); test: Test A postemergence, visual plant response rating; conditions: for Pigweed plant response rating (0 to 100 scale): 500 g ai/ha, postemergence, 0 is no effect, 100 is complete control; for Pigweed plant response rating: Postemergence, 125 g ai/ha, 0 to 100 scale (0 no effect, 100 complete control)
How it was run: as §1

[15] = tested on: ragweed (common ragweed, Ambrosia elatior); test: Test A postemergence, visual plant response rating; conditions: for Ragweed plant response rating (0 to 100 scale): 500 g ai/ha, postemergence, 0 is no effect, 100 is complete control; for Ragweed plant response rating: Postemergence, 125 g ai/ha, 0 to 100 scale (0 no effect, 100 complete control)
How it was run: as §1

[16] = tested on: wheat (Triticum aestivum); test: Test A postemergence, visual plant response rating; conditions: for Wheat plant response rating (0 to 100 scale): 500 g ai/ha, postemergence, 0 is no effect, 100 is complete control; for Wheat plant response rating: Postemergence, 125 g ai/ha, 0 to 100 scale (0 no effect, 100 complete control)
How it was run: as §1

[17] = tested on: barnyardgrass (Echinochloa crus-galli); test: Test B flooded paddy test, visual plant response rating; conditions: 250 g ai/ha, Flood, applied to paddy water, 2-leaf stage, evaluated after 13 to 15 days
How it was run: (§2)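 Compounds added straight into paddy water of pots flooded to 3 cm, with 2-leaf-stage plants of the four species; water level held throughout.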

[18] = tested on: ducksalad (Heteranhera limosa); test: as above; conditions: 250 g ai/ha, Flood, applied to paddy water, 2-leaf stage, evaluated after 13 to 15 days
How it was run: as §2

[19] = tested on: rice (Oryza sativa); test: as above; conditions: 250 g ai/ha, Flood, applied to paddy water, 2-leaf stage, evaluated after 13 to 15 days
How it was run: as §2

[20] = tested on: sedge, umbrella (small-flower umbrella sedge, Cyperus difformis); test: as above; conditions: 250 g ai/ha, Flood, applied to paddy water, 2-leaf stage, evaluated after 13 to 15 days
How it was run: as §2

CCCc1ccccc1/C(=N\OC)c1c(O)c(C)nn(C)c1=O [Compound 92]
Ryegrass, Italian plant response rating [1]: 40 | Ryegrass, Italian plant response rating (0 to 100 scale) [1]: 80 | Barnyardgrass plant response rating [2]: 30 | Barnyardgrass plant response rating (0 to 100 scale) [2]: 60 | Foxtail, Giant plant response rating [3]: 70 | Foxtail, Giant plant response rating (0 to 100 scale) [3]: 80 | Kochia plant response rating [4]: 0 | Kochia plant response rating (0 to 100 scale) [4]: 10 | Pigweed plant response rating [5]: 30 | Pigweed plant response rating (0 to 100 scale) [5]: 90 | Ragweed plant response rating [6]: 20 | Ragweed plant response rating (0 to 100 scale) [6]: 30 | Ryegrass, Italian plant response rating (0 to 100 scale) [7]: 60 | Ryegrass, Italian plant response rating [7]: 50 | Barnyardgrass plant response rating (0 to 100 scale) [8]: 40 | Barnyardgrass plant response rating [8]: 20 | Blackgrass plant response rating (0 to 100 scale) [9]: 70 | Blackgrass plant response rating [9]: 20 | Corn plant response rating (0 to 100 scale) [10]: 10 | Corn plant response rating [10]: 0 | Foxtail, Giant plant response rating (0 to 100 scale) [11]: 60 | Foxtail, Giant plant response rating [11]: 50 | Galium plant response rating (0 to 100 scale) [12]: 70 | Galium plant response rating [12]: 70 | Kochia plant response rating (0 to 100 scale) [13]: 60 | Kochia plant response rating [13]: 30 | Pigweed plant response rating (0 to 100 scale) [14]: 80 | Pigweed plant response rating [14]: 60 | Ragweed plant response rating (0 to 100 scale) [15]: 70 | Ragweed plant response rating [15]: 60 | Wheat plant response rating (0 to 100 scale) [16]: 0 | Wheat plant response rating [16]: 0 | Plant response rating, Barnyardgrass (0 to 100 scale, 0 is no effect, 100 is complete control) [17]: 0 | Plant response rating, Ducksalad (0 to 100 scale, 0 is no effect, 100 is complete control) [18]: 0 | Plant response rating, Rice (0 to 100 scale, 0 is no effect, 100 is complete control) [19]: 0 | Plant response rating, Sedge, Umbrella (0 to 100 scale, 0 is no effect, 100 is complete control) [20]: 0

CO/N=C(/c1ccccc1C(C)C)c1c(O)c(C)nn(C)c1=O [Compound 93]
Ryegrass, Italian plant response rating [1]: 20 | Ryegrass, Italian plant response rating (0 to 100 scale) [1]: 70 | Barnyardgrass plant response rating [2]: 0 | Barnyardgrass plant response rating (0 to 100 scale) [2]: 50 | Foxtail, Giant plant response rating [3]: 10 | Foxtail, Giant plant response rating (0 to 100 scale) [3]: 30 | Kochia plant response rating [4]: 0 | Kochia plant response rating (0 to 100 scale) [4]: 0 | Pigweed plant response rating [5]: 0 | Pigweed plant response rating (0 to 100 scale) [5]: 20 | Ragweed plant response rating [6]: 0 | Ragweed plant response rating (0 to 100 scale) [6]: 0 | Ryegrass, Italian plant response rating (0 to 100 scale) [7]: 80 | Ryegrass, Italian plant response rating [7]: 40 | Barnyardgrass plant response rating (0 to 100 scale) [8]: 20 | Barnyardgrass plant response rating [8]: 10 | Blackgrass plant response rating (0 to 100 scale) [9]: 70 | Blackgrass plant response rating [9]: 0 | Corn plant response rating (0 to 100 scale) [10]: 10 | Corn plant response rating [10]: 10 | Foxtail, Giant plant response rating (0 to 100 scale) [11]: 40 | Foxtail, Giant plant response rating [11]: 30 | Galium plant response rating (0 to 100 scale) [12]: 70 | Galium plant response rating [12]: 60 | Kochia plant response rating (0 to 100 scale) [13]: 30 | Kochia plant response rating [13]: 0 | Pigweed plant response rating (0 to 100 scale) [14]: 80 | Pigweed plant response rating [14]: 50 | Ragweed plant response rating (0 to 100 scale) [15]: 50 | Ragweed plant response rating [15]: 10 | Wheat plant response rating (0 to 100 scale) [16]: 10 | Wheat plant response rating [16]: 0 | Plant response rating, Barnyardgrass (0 to 100 scale, 0 is no effect, 100 is complete control) [17]: 0 | Plant response rating, Ducksalad (0 to 100 scale, 0 is no effect, 100 is complete control) [18]: 65 | Plant response rating, Rice (0 to 100 scale, 0 is no effect, 100 is complete control) [19]: 0 | Plant response rating, Sedge, Umbrella (0 to 100 scale, 0 is no effect, 100 is complete control) [20]: 0
